Test results published in ChEMBL document CHEMBL1201862, “PubChem BioAssay data set” (2004).
Active and inactive are the calls of the source.

Tests used:
Bcl-2-like protein 10 = Bcl-2-like protein 10 (Homo sapiens, UniProt Q9HD36); assay: Bcl-B/TR3 peptide binding disruption – biochemical, fluorescence polarization, FITC-TR3 peptide, selectivity assay for Bfl-1 inhibitor project, primary screen (AID 748);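 further: fluorescence polarization from a fluorescein-labelled TR3 peptide binding purified Bcl-B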
[1] = target: G2/mitotic-specific cyclin-B1 (Homo sapiens, UniProt P14635); assay: Counterscreen assay for inhibitors of Wee1 degradation: dose response cell-based assay to identify inhibitors of cyclin B degradation. [Related pubchem assays: 1410, 1321 ]; type: functional
Chain of G2/mitotic-specific cyclin-B1 (P14635 whole entry): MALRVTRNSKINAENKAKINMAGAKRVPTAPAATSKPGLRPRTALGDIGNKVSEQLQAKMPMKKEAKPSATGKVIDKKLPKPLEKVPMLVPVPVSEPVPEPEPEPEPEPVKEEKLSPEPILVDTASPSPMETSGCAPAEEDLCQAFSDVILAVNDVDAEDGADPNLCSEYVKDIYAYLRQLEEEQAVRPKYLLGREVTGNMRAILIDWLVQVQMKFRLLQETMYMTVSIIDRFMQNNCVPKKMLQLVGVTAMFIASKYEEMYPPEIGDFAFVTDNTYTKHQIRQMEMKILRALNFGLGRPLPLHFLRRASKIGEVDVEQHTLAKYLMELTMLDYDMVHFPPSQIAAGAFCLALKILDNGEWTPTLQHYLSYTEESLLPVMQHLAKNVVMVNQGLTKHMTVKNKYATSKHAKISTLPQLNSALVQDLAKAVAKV

[2] = Luminescence Cell-Based Dose Response HTS to Identify Activators of Luciferase Translation or Activity in H4 […] Cells. [Related pubchem assays: 1829 (Project Summary), 1814 (Primary HTS)]; type: functional
Wee1-like protein kinase = Wee1-like protein kinase (Homo sapiens, UniProt P30291); assay: Dose Response Cell-based Assay for Inhibitors of Wee1 Degradation. [Related pubchem assays: 1410, 1321 ]; type: functional
H4 = assay: Luminescence Cell-Based Dose Response HTS to Identify Activators of 5'UTR Stem-Loop Driven Prion Protein mRNA Translation in H4 Neuroglioblastoma Cells. [Related pubchem assays: 1829 (Project Summary), 1814 (Primary HTS)]; type: functional; conditions: Homo sapiens
[3] = Cytotoxicity screening for potential Inhibitors of Bacterial Capsule Biogenesis. [Related pubchem assays (depositor defined):AID488970]; type: functional
[4] = target: FAD-linked sulfhydryl oxidase ALR (Homo sapiens, UniProt P55789); assay: ALR-catalysed DTT oxidation blockers – biochemical, H2O2 detection, luminescence, cherry-pick, dose response (AID 493248)
[5] = Counterscreen for IDE inhibitors: Luminescence-based cell-based high throughput dose response assay to identify compounds that are cytotoxic to HEK cells. [Related pubchem assays: 434962 (Primary screen (IDE inhibitors in singlicate)), 449730 (Counterscreen (Cytotoxicity in triplicate)), 435028 (Confirmation (IDE inhibitors in triplicate)) …; type: functional; conditions: HEK293
Insulin-degrading enzyme = target: T1, Insulin-degrading enzyme (Homo sapiens, UniProt P14735); assay: Dose Response: Fluorescence polarization-based cell-based high throughput dose response assay for inhibitors of insulin-degrading enzyme (IDE). [Related pubchem assays: 434962 (Primary screen (IDE inhibitors in singlicate)), 449730 (Counterscreen (Cytotoxicity in triplicate)), 435028 (Confirmation (IDE inhibitors in triplicate)), 434984 (Summary …; type: functional
T1 sequence (P14735 whole entry): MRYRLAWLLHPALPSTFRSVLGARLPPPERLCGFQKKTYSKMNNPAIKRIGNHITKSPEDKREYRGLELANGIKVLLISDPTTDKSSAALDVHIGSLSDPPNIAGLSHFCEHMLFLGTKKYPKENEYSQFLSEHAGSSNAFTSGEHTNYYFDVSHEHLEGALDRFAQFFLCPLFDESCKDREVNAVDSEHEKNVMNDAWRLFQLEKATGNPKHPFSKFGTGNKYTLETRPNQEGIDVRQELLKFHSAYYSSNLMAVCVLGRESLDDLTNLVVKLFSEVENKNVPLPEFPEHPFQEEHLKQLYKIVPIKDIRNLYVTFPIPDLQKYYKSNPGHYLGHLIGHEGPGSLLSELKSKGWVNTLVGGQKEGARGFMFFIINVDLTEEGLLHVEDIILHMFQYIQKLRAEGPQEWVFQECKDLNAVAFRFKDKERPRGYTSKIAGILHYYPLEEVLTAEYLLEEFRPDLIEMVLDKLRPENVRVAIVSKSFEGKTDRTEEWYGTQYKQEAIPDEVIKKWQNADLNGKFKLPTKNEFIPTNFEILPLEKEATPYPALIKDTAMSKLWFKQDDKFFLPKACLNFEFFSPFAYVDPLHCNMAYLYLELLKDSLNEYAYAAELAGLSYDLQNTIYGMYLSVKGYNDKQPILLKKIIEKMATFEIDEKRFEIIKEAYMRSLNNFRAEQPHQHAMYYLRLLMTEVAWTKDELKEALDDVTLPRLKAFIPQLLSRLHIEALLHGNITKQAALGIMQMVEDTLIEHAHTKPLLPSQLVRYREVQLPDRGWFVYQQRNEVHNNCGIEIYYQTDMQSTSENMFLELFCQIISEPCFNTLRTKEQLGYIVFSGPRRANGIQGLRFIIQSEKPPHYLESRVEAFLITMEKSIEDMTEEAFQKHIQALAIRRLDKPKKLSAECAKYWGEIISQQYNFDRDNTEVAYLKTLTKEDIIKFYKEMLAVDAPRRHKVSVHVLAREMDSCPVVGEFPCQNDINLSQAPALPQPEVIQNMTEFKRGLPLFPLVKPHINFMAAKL

[6] = target: G-protein coupled receptor 55 (Homo sapiens, UniProt Q9Y2T6); assay: selective activators of receptor GPR55 – imaging, U2OS cells, beta-arrestin-GFP redistribution, primary screen (AID 1961); type: functional
Chain of G-protein coupled receptor 55 (Q9Y2T6 whole entry): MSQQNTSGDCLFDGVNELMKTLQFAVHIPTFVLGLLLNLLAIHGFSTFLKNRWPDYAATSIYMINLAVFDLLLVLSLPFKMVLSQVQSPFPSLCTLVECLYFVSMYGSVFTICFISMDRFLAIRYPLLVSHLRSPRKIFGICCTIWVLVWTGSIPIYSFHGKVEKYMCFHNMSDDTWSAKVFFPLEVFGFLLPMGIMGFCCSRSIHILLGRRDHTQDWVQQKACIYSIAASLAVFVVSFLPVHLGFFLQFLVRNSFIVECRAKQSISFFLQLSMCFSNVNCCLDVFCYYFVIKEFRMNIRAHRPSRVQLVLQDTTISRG

[7] = target: T2, Short transient receptor potential channel 4 (Mus musculus, UniProt Q9QUQ5); assay: calcium entry via TRPC4 opening agents – cell-based, HEK293 TRPC4/mu-opioid, Fluo-4 calcium, dose response (AID 434937); type: functional
T2 sequence (Q9QUQ5 whole entry): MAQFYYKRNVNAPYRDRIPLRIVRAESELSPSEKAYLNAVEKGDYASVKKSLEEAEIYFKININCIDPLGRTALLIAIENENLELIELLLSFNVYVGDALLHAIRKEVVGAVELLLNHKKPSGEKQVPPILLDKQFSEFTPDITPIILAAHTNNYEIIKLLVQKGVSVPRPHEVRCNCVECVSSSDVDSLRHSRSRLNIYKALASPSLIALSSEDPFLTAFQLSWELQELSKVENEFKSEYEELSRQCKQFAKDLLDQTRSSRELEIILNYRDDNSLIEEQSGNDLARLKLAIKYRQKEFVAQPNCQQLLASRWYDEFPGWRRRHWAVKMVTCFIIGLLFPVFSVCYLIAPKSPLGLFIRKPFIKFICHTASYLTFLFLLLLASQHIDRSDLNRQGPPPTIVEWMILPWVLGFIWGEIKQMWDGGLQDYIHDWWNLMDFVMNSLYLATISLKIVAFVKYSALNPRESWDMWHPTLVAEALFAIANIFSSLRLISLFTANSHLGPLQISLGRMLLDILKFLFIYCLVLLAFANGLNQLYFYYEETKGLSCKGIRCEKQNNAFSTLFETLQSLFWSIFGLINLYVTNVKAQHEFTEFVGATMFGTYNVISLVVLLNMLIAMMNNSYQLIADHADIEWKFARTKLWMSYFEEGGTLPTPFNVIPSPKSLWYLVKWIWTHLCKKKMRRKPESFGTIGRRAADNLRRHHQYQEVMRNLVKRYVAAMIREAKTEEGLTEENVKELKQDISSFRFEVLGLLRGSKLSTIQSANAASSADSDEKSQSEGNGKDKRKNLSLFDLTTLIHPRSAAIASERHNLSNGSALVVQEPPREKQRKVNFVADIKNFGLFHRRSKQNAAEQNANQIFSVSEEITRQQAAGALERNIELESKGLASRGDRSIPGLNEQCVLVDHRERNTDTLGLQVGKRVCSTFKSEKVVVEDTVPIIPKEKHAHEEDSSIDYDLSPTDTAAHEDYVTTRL

SUMO-activating enzyme [8] = target: T3, SUMO-activating enzyme (Homo sapiens, UniProt Q9UBT2); assay: blockers of UBC9-mediated SUMO conjugation – biochemical, AlphaScreen, SUMOylation inhibitor project, confirmation (AID 2018); type: functional
T3 sequence (Q9UBE0 whole entry, the tested form may be a part): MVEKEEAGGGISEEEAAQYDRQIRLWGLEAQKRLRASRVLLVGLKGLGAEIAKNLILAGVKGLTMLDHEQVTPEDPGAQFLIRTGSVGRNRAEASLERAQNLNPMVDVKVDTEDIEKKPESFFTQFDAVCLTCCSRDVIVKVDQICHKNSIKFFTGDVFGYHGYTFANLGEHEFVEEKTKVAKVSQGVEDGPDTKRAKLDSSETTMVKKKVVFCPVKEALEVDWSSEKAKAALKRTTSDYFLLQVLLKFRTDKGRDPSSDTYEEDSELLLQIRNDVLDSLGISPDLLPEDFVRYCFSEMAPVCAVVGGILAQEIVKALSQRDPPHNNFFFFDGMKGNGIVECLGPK
T3 sequence (Q9UBT2 whole entry, the tested form may be a part): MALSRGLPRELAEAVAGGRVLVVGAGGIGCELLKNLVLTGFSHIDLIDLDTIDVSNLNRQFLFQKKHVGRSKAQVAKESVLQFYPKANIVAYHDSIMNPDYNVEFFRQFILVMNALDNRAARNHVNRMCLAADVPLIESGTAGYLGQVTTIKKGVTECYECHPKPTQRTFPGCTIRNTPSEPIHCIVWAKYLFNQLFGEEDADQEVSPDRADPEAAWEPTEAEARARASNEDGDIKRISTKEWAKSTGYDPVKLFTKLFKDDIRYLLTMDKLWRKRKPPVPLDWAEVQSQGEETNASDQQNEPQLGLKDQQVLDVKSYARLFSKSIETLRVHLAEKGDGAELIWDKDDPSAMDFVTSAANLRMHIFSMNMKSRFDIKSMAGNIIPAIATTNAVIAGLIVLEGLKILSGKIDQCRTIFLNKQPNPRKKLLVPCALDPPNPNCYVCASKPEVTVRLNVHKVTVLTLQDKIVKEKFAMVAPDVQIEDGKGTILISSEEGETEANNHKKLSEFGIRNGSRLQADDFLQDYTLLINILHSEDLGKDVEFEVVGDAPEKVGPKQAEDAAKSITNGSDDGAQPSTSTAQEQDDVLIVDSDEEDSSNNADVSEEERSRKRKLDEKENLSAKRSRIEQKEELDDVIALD

[9] = CCR5-tropic HIV-1 fusion blockers – cell-based, CCR5-tropic Env, dose response (AID 2279); type: functional
SUMO-activating enzyme [10] = target: T3, SUMO-activating enzyme; assay: blockers of SAE1/SAE2–UBC9 SUMO transfer – biochemical, HTRF, uHTS, primary screen (AID 2006); type: protein-complex assay
[11] = target: Induced myeloid leukemia cell differentiation protein Mcl-1 (Homo sapiens, UniProt Q07820); type: functional
Chain of Induced myeloid leukemia cell differentiation protein Mcl-1 (Q07820 whole entry): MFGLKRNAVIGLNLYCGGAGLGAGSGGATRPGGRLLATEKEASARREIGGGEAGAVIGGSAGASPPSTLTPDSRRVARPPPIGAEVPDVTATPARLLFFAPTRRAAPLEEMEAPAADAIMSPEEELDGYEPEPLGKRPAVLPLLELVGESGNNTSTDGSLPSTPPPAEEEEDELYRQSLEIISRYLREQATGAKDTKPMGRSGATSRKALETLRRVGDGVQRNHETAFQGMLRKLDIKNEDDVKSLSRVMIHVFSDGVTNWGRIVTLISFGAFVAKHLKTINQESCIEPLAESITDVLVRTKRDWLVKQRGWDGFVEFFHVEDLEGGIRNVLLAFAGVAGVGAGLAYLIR

[12] = microbe, parasite or virus in culture; type: functional; conditions: Mycobacterium tuberculosis
[13] = target: NACHT, LRR and PYD domains-containing protein 3 (Homo sapiens, UniProt Q96P20); assay: NALP3 inhibitors in yeast, dose response, luminescent (AID 488799); type: functional
[14] = target: Serine/threonine-protein phosphatase PP1-alpha catalytic subunit (Homo sapiens, UniProt P62136); assay: inhibition of protein phosphatase 1 activity – biochemical, fluorescence, dose response (AID 2403);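 further: phosphatase turnover of OMFP into fluorescent 3-O-methylfluorescein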
Chain of Serine/threonine-protein phosphatase PP1-alpha catalytic subunit (P62136 whole entry): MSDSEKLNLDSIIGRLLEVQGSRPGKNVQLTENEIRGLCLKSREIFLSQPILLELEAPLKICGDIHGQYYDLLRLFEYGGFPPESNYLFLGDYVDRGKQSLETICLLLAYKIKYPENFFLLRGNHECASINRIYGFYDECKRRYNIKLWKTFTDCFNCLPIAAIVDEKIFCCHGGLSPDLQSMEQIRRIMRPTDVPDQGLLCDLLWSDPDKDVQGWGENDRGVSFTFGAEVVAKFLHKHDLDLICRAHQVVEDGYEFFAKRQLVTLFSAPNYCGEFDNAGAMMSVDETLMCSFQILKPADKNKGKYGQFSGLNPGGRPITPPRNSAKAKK

[15] = Trypanosoma cruzi growth suppression in host cells – NIH3T3 host cells, beta-gal luminescence, confirmation (AID 2044); type: functional, cell-based;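 further: intracellular parasites grown in NIH/3T3 mouse fibroblasts as host cells; luminescent beta-galactosidase reporter signal from transgenic T. cruzi replicating inside host cells; inhibitors lower the luminescence signal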
[16] = target: Serine/threonine-protein phosphatase (Homo sapiens, UniProt Q9BPW0); assay: Counterscreen for inhibitors of PP1: fluorescence-based biochemical high throughput dose response assay to identify inhibitors of Protein Phosphatase 5 (PP5). [Related pubchem assays: 2034 (Summary (PP5 inhibitors)), 1987 (PP5 inhibitors in singlate), 2235 (PP1 inhibitors in singlate)]
Chain of Serine/threonine-protein phosphatase (Q9BPW0 whole entry): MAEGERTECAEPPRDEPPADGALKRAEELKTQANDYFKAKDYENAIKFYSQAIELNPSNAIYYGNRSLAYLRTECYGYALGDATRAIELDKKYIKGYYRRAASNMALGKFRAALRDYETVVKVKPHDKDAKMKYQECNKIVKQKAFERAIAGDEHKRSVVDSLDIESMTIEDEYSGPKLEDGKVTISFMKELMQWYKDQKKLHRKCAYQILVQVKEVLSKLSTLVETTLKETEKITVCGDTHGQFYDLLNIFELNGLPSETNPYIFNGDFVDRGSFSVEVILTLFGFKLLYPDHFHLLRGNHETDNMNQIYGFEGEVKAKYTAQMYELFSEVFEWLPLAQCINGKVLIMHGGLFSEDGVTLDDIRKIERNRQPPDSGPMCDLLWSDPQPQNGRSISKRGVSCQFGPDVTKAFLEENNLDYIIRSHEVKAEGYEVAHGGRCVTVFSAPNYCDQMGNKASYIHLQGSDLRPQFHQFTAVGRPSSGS

[17] = NIH3T3 cell viability loss – ATP luminescence, mouse fibroblasts, counter-screen, dose response (AID 2010); type: functional, cell-based;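 further: cells exposed to compound for about 90 hours before reading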
[18] = reduction of Shn3 3'UTR-driven luciferase in osteoblasts – cell-based, Clone20 osteoblasts, firefly luciferase, cherry-picked, dose response (AID 624132); type: functional;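 further: firefly luciferase luminescence from reporter carrying the Shn3 3'UTR in osteoblasts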
[19] = loss of viability in HepG2 cells – cell-based, CellTiter-Glo, cherry-picked, cytotoxicity control for Shn3 inhibitor project, dose response (AID 624134); type: functional
[20] = non-specific 3'UTR reporter inhibition in Clone20-Shn3RL – cell-based, Renilla luciferase, cherry-picked, counter-screen for Shn3 inhibitor project, dose response (AID 624133); type: functional
Aminopeptidase N = Aminopeptidase N (Plasmodium falciparum FcB1/Columbia, UniProt O96935); assay: malaria alanyl aminopeptidase activity blockers – biochemical, fluorogenic H-Leu-NHMec substrate, 1536-well (AID 1445); set-up: species or system Plasmodium falciparum 3D7, 3D7
Chain of Aminopeptidase N (O96935 whole entry): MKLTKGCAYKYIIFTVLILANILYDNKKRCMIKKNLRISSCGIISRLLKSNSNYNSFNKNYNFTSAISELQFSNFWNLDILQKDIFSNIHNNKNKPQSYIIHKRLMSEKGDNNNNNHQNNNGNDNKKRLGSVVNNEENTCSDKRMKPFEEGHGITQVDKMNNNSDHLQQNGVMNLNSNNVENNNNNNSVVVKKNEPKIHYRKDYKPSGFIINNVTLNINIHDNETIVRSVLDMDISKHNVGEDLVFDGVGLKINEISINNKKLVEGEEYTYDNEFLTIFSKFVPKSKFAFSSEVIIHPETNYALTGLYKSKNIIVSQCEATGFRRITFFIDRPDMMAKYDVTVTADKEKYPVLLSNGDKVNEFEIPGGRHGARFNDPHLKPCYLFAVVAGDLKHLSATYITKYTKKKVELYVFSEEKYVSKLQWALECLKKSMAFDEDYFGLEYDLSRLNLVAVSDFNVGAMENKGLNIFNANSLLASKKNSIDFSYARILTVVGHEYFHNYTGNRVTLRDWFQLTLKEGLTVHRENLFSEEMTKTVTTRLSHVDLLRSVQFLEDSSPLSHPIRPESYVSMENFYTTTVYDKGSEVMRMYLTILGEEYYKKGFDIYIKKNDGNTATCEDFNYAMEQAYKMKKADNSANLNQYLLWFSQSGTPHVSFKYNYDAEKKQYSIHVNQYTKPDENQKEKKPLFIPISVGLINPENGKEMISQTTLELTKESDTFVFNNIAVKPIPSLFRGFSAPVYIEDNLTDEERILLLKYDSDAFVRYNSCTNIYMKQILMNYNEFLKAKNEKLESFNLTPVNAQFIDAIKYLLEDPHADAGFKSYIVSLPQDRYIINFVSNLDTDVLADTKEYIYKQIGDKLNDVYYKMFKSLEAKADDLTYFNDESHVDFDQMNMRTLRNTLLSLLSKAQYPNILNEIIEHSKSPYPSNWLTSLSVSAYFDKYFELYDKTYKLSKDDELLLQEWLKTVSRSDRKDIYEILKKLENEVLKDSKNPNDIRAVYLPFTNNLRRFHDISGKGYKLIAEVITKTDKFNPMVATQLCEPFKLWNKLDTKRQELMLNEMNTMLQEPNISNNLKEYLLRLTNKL

[21] = target: Luciferin 4-monooxygenase (Photinus pyralis, UniProt P08659); assay: inhibition of purified Photinus pyralis luciferase – biochemical, luminescence, dose response (AID 1891)
Chain of Luciferin 4-monooxygenase (P08659 whole entry): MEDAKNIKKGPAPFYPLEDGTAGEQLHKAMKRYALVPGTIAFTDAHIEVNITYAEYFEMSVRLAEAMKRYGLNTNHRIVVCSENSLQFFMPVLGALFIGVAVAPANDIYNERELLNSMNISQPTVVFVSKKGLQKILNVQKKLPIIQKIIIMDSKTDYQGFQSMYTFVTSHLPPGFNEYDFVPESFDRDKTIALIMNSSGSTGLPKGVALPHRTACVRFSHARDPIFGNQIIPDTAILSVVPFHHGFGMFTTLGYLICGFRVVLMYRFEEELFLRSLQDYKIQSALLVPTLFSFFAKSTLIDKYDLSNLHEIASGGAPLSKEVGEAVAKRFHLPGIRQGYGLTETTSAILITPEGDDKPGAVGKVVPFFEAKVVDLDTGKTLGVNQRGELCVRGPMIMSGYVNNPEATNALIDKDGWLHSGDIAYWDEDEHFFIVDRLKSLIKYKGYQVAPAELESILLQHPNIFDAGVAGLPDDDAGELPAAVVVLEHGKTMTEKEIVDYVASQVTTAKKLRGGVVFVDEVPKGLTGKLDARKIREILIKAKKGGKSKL

[22] = Luminescence Cell-Based Dose Confirmation HTS to Identify Inhibitors of Platelet Dense Granule Release. [Related pubchem assays: 1663 (Primary HTS), 1678 (Summary of Project)]; type: functional
[23] = Luminescence-based counterscreen assay for KLF5 inhibitors: dose response cell-based high throughput screening assay to identify cytotoxic compounds using the IEC-6 intestinal epithelial cell line. [Related pubchem assays: 1700 (Primary screen.), 1834 (Confirmation screen.), 1858 (Summary AID.), 1905 (Counterscreen.)]; type: functional
[24] = HEK-293T viability loss after treatment – luminescence, T-cell screen hits, cytotoxicity control for TCR NF-kB inhibitor project, dose response (AID 489026); type: functional, cell-based;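 further: cells exposed to compound about 14 hours before the viability readout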
[25] = target: T4, Microphthalmia-associated transcription factor (Homo sapiens, UniProt O75030); assay: reducers of TRPM1 reporter luminescence, concentration series – cell-based, SK-MEL-5, cherry-picked, set 3, MITF inhibitor project, dose response (AID 493073); type: functional;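 further: SK-MEL-5 melanoma cells with luciferase driven by the MITF target TRPM1 promoter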
T4 sequence (O75030 whole entry): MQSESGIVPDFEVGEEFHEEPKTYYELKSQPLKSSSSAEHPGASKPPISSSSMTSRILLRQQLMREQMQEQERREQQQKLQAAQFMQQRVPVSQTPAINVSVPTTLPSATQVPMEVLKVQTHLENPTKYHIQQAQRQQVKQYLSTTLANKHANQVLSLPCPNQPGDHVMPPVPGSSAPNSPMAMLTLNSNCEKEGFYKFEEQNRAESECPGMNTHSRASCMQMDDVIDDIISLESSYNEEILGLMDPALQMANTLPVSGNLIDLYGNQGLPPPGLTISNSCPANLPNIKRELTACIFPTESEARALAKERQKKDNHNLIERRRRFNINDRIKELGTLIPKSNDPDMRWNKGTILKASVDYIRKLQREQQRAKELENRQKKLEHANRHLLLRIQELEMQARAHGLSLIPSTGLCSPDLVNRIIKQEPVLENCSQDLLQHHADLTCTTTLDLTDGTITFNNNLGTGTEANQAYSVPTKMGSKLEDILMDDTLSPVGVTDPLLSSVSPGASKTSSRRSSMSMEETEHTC

A-375 = assay: MITF: Counter assay: A375 proliferation Measured in Cell-Based System Using Plate Reader - 2084-03_Inhibitor_Dose_DryPowder_Activity. [Related pubchem assays (depositor defined):AID488944]; type: functional; conditions: Homo sapiens
Paired box protein Pax-8 = Paired box protein Pax-8 (Homo sapiens, UniProt Q06710); assay: PAX8 transcriptional activity inhibition in RMG-I – RMG-I cells, luciferase, cherry-pick, dose response (AID 687027); type: functional, cell-based;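 further: luciferase reporter driven by Pax8 target thyroperoxidase promoter measured by SteadyGlo luminescence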
Chain of Paired box protein Pax-8 (Q06710 whole entry): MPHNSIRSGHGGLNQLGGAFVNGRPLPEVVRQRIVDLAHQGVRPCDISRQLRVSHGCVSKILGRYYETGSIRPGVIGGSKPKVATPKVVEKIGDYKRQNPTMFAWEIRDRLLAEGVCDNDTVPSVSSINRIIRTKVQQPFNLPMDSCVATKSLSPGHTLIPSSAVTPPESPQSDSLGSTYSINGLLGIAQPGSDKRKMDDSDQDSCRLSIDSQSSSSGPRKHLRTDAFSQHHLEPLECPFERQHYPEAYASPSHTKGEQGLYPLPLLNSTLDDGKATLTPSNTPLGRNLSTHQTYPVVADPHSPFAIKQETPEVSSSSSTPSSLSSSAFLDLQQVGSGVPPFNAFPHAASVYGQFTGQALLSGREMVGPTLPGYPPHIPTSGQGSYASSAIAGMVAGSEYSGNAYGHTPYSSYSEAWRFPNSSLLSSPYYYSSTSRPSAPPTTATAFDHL

[26] = general cell-killing toxicity readout – plate reader, dry powder samples, cytotoxicity control for PAX8 inhibitor project, dose response (AID 743021); type: functional, cell-based

## CCn1ccc(C(=O)Nc2ccc(S(=O)(=O)Nc3ccccc3OC)cc2)n1
Bcl-2-like protein 10
  IC50: > 100 µM (inactive)

## Cc1cccn2c1nc(=S)n2C(=O)c1ccco1
[1]
  EC50: > 49.7 µM (not active)
[2]
  EC50: 1.05 µM (active)
Wee1-like protein kinase
  EC50: > 49.7 µM (not active)
H4
  EC50: 0.104 µM (active)

## O=C(Nc1ccncc1)c1ccc2ncsc2c1
[3]
  CC50: > 100 µM (active)
[4]
  AC50: 1.34 µM (active)

## CN(C)c1ccc(/C=C/C(=O)c2c(O)oc3ccccc3c2=O)cc1
[5]
  IC50: > 55.7 µM (not active)
Insulin-degrading enzyme
  IC50: > 2.07 µM (active)
[6]
  EC50: 19.5 µM (inactive)
[7]
  EC50: 7.5 µM (active)

## CN(C)S(=O)(=O)c1cccc(-c2nn(-c3ccccc3)cc2/C=C2\SC(=S)NC2=O)c1
SUMO-activating enzyme [8]
  IC50: 7.59 µM (active)
[9]
  IC50: 7.08 µM (active)
SUMO-activating enzyme [10]
  IC50: 10.6 µM (active)
[11]
  IC50: 1.44 µM (active)

## O=C(NCCC1=CCCCC1)c1c(O)nc2sccn2c1=O
[12]
  CC50: 13.8 µM (active)
[13]
  IC50: 3.8 µM (active)

## CCOC(=O)c1cnc(-n2nc(C)cc2C)nc1NCc1ccc2c(c1)OCO2
[14]
  IC50: 5.21 µM (active)
[15]
  EC50: 2.36 µM (active)
[16]
  IC50: > 67 µM (not active)
[17]
  EC50: > 60 µM (not active)
[18]
  AC50: 8.74 µM (active)
[19]
  AC50: 63 µM (active)
[20]
  AC50: 16.1 µM (active)

## CC(C)Oc1ccc(C(=O)N/N=C/c2ccc(-c3ccc(S(=O)(=O)Nc4ncccn4)cc3)o2)cc1
Aminopeptidase N
  IC50: 23.1 µM (active)

## COc1cccc(/C=N/Nc2ccc(C(=O)O)cc2)c1O
[21]
  EC50: 0.693 µM (active)
[22]
  EC50: 0.17 µM (active)
[23]
  IC50: > 39.8 µM (not active)
[24]
  IC50: > 80 µM (inactive)
[25]
  AC50: 0.333 µM (active)
A-375
  AC50: 29.9 µM (active)
Paired box protein Pax-8
  AC50: 0.635 µM (active)
[26]
  AC50: 21.6 µM (active)
